# Patent US20250127754A1, “Pharmaceutical Application of Dimyricetin-yl-diselenide in Atherosclerosis” (Shanghai Spark Pharmaceutical Co., Ltd., priority 2023, published 2025)
# Entries after “also recorded” stand apart in the source; their conditions may differ.
# Legend:
# Type in all cases: in vivo
# ApoE−/− mice [1] = assay: Body weight, high-fat diet atherosclerosis model; conditions: HFD-fed ApoE−/− mice, compared with control group; FIG. 1
# Procedure: (§1) Upon arrival, ApoE−/− mice were acclimatized to the experimental facility for 3 days. After an overnight fast (12 hours), blood samples were collected to measure baseline levels of serum lipids (TC, TG, HDL-C, LDL-C) and LDH. Control mice were fed a regular diet, while the remaining mice were fed a high-fat diet for 18 weeks. The regular diet contained 11% kcal fat and 0% cholesterol, while the high-fat diet contained 40% kcal fat and 0.21% cholesterol. At 8 weeks of high-fat feeding, the animals underwent echocardiography and blood biochemical tests. Based on their TC values, they were randomly assigned to the following groups: blank control, model control, positive control, AQ-C-a, DMS-ASD, and DMS (refer to Table 2 in Section 6.5). Drug administration continued for 10 weeks. During the experiment, the animals' appearance, behavior, and physical condition were observed, and their body weight, echocardiography, serum lipids (TC, TG, HDL-C, and LDL-C), and blood biochemistry (LDH, SOD, and MDA) were monitored. At the end of the experiment (Week 18), hearts and aortas were collected for Oil Red O staining and histopathological analysis.
# All animals were given medicine […] once a day during the medication period;
# ApoE−/− mice [2] = assay: Heart weight and heart weight index (tibial length corrected); conditions: 10 weeks QD: Atorvastatin 20 mg/kg P.O., AQ-C-a 300 mg/kg P.O., DMS-ASD 300 mg/kg P.O., DMS 20 mg/kg SC; for Heart: heart weight at end of experiment (week 18)
# Procedure: At the experimental endpoint, hearts and tibias were collected. The heart was weighed and its weight index was calculated using tibial length for correction, with the formula: Heart Index=Heart Weight (g)/Tibial Length (cm)×100%. The heart was fixed in 4% PFA and subjected to HE staining to evaluate fat plaques in the outflow tract.
# ApoE−/− mice [3] = assay: Plasma SOD and MDA, high-fat diet atherosclerosis model; parameters: MDA: unit not given here; conditions: QD: Atorvastatin 20 mg/kg P.O., AQ-C-a 300 mg/kg P.O., DMS-ASD 300 mg/kg P.O., DMS 20 mg/kg SC
# Procedure: as §1
# (§2) Animals were fasted the night before blood collection. Blood samples were collected and anticoagulated with heparin to prepare plasma for the detection of TG, TC, HDL-C, LDL-c, and LDH. Blood was collected at six time points: Week 0, Week 8, Week 10, Week 12, Week 16, and Week 18. SOD and MDA levels were measured at Week 16 and Week 18.
# ApoE−/− mice [4] = assay: Plasma LDH content, high-fat diet atherosclerosis model; parameters: LDH: unit not given here
# Description: Upon arrival, ApoE−/− mice were acclimatized to the experimental facility for 3 days. […] Control mice were fed a regular diet, while the remaining mice were fed a high-fat diet for 18 weeks. […] At 8 weeks of high-fat feeding, the animals underwent echocardiography and blood biochemical tests. […] Drug administration continued for 10 weeks. During the experiment, the animals' appearance, behavior, and physical condition were observed, and their body weight, echocardiography, serum lipids (TC, TG, HDL-C, and LDL-C), and blood biochemistry (LDH, SOD, and MDA) were monitored. At the end of the experiment (Week 18), hearts and aortas were collected for Oil Red O staining and histopathological analysis. Animals were fasted the night before blood collection. Blood samples were collected and anticoagulated with heparin to prepare plasma for the detection of TG, TC, HDL-C, LDL-c, and LDH.
# ApoE−/− mice [5] = assay: Blood lipids (TG, TC, HDL-C, LDL-C) in plasma, high-fat diet atherosclerosis model; parameters: TG / TC / HDL-C / LDL-C: unit not given here; conditions: for Effect on LDL-c (in words) / Effect on TC (in words): compared to the model group
# Procedure: as §1, §2
# ApoE−/− mice [6] = assay: Aortic fat plaque examination (oil red O staining); conditions: for Effect on percentage of aortic plaque (in words): end of 18th week, compared with the model group; for % Patch area (aortic plaque): week 18, oil red staining of aorta, 10 weeks QD: Atorvastatin 20 mg/kg P.O., AQ-C-a 300 mg/kg P.O., DMS-ASD 300 mg/kg P.O., DMS 20 mg/kg SC
# Procedure: as §1
# Aortic oil red O staining was performed. The experimental endpoint was set at Week 10 post-treatment. After euthanasia, the aorta was collected from the aortic arch to the iliac artery and subjected to oil red O staining to analyze the accumulation of fat plaques in the aorta.
# [7] = week 0, baseline before HFD and dosing, fasted plasma, mean±standard error
# [8] = week 8 of HFD, before start of dosing, fasted plasma
# [9] = week 10 of HFD (2 weeks dosing), QD: Atorvastatin 20 mg/kg P.O., AQ-C-a 300 mg/kg P.O., DMS-ASD 300 mg/kg P.O., DMS 20 mg/kg SC
# [10] = week 12 of HFD (4 weeks dosing), QD: Atorvastatin 20 mg/kg P.O., AQ-C-a 300 mg/kg P.O., DMS-ASD 300 mg/kg P.O., DMS 20 mg/kg SC
# [11] = week 16 of HFD (8 weeks dosing), QD: Atorvastatin 20 mg/kg P.O., AQ-C-a 300 mg/kg P.O., DMS-ASD 300 mg/kg P.O., DMS 20 mg/kg SC
# [12] = week 18 of HFD (10 weeks dosing), QD: Atorvastatin 20 mg/kg P.O., AQ-C-a 300 mg/kg P.O., DMS-ASD 300 mg/kg P.O., DMS 20 mg/kg SC
compound,measurement,setting,value
"CC(C)c1c(C(=O)Nc2ccccc2)c(-c2ccccc2)c(-c2ccc(F)cc2)n1CC[C@@H](O)C[C@@H](O)CC(=O)O [Atorvastatin, reference compound]",Effect on body weight (in words),ApoE−/− mice [1],significantly greater than those in the control group
same,Heart,ApoE−/− mice [2],0.192 ± 0.009 g
same,SOD,ApoE−/− mice [3]; week 16 (8 weeks dosing),0.87 ± 0.09 U/mL
same,SOD,ApoE−/− mice [3]; week 18 (10 weeks dosing),0.99 ± 0.09 U/mL
same,LDH,ApoE−/− mice [4]; [7],948.67 ± 117.19
same,LDH,ApoE−/− mice [4]; [8],1176.67 ± 142.27
same,LDH,ApoE−/− mice [4]; [9],620 ± 62.03
same,LDH,ApoE−/− mice [4]; [10],422.67 ± 50.59
same,LDH,ApoE−/− mice [4]; [11],384 ± 25.93
same,LDH,ApoE−/− mice [4]; [12],1384.67 ± 191.24
same,Effect on LDL-c (in words),ApoE−/− mice [5],significantly reduced
same,Effect on TC (in words),ApoE−/− mice [5],significantly reduced
same,HDL-C,ApoE−/− mice [5]; [7],1.53 ± 0.15
same,LDL-C,ApoE−/− mice [5]; [7],5.63 ± 0.34
same,TC,ApoE−/− mice [5]; [7],10.12 ± 0.84
same,TG,ApoE−/− mice [5]; [7],1.79 ± 0.14
same,HDL-C,ApoE−/− mice [5]; [8],1.36 ± 0.13
same,LDL-C,ApoE−/− mice [5]; [8],22.23 ± 1.6
same,TC,ApoE−/− mice [5]; [8],28.87 ± 2.19
same,TG,ApoE−/− mice [5]; [8],1.35 ± 0.17
same,HDL-C,ApoE−/− mice [5]; [9],1.51 ± 0.06
same,LDL-C,ApoE−/− mice [5]; [9],16.31 ± 0.92
same,TC,ApoE−/− mice [5]; [9],22.38 ± 1.25
same,TG,ApoE−/− mice [5]; [9],2.31 ± 0.18
same,HDL-C,ApoE−/− mice [5]; [10],1.59 ± 0.09
same,LDL-C,ApoE−/− mice [5]; [10],20.24 ± 2
same,TC,ApoE−/− mice [5]; [10],27.29 ± 2.61
same,TG,ApoE−/− mice [5]; [10],2.2 ± 0.13
same,HDL-C,ApoE−/− mice [5]; [11],2.53 ± 0.12
same,LDL-C,ApoE−/− mice [5]; [11],14.32 ± 1.08
same,TC,ApoE−/− mice [5]; [11],19.14 ± 1.34
same,TG,ApoE−/− mice [5]; [11],1.99 ± 0.2
same,HDL-C,ApoE−/− mice [5]; [12],2.5 ± 0.18
same,LDL-C,ApoE−/− mice [5]; [12],13.87 ± 1.51
same,TC,ApoE−/− mice [5]; [12],18.89 ± 2.11
same,TG,ApoE−/− mice [5]; [12],1.51 ± 0.09
same,Effect on percentage of aortic plaque (in words),ApoE−/− mice [6],significantly reduced
same,% Patch area (aortic plaque),ApoE−/− mice [6],6.86 ± 1.21 %
Dimyricetin-yl-diselenide [DMS],Effect on body weight (in words),ApoE−/− mice [1],stabilized from the 10th to 11th week and overlapped with the control group's weight curve by the 14th week; also recorded: inhibiting the increase
same,Heart,ApoE−/− mice [2],0.169 ± 0.010 g
same,Cardiac weight index,"ApoE−/− mice [2]; heart weight/tibial length, week 18",0.095 ± 0.006 g/cm
same,MDA,ApoE−/− mice [3]; week 16 (8 weeks dosing),7.19 ± 1.15
same,SOD,ApoE−/− mice [3]; week 16 (8 weeks dosing),1.06 ± 0.14 U/mL
same,MDA,ApoE−/− mice [3]; week 18 (10 weeks dosing),6.08 ± 0.50
same,SOD,ApoE−/− mice [3]; week 18 (10 weeks dosing),0.87 ± 0.03 U/mL
same,Effect on plasma LDH (in words),"ApoE−/− mice [4]; 18th week, compared to the model group, P<0.05",significant reductions; also recorded: inhibiting the increase
same,LDH,ApoE−/− mice [4]; [7],1083.25 ± 375.4
same,LDH,ApoE−/− mice [4]; [8],1022.5 ± 112.95
same,LDH,ApoE−/− mice [4]; [9],401.5 ± 22.95
same,LDH,ApoE−/− mice [4]; [10],368.5 ± 26.82
same,LDH,ApoE−/− mice [4]; [11],361.88 ± 20.78
same,LDH,ApoE−/− mice [4]; [12],719 ± 81.08
same,Effect on LDL-c (in words),ApoE−/− mice [5],trend of reducing; also recorded: inhibiting the increase
same,Effect on TC (in words),ApoE−/− mice [5],trend of reducing; also recorded: inhibiting the increase
same,HDL-C,ApoE−/− mice [5]; [7],1.63 ± 0.12
same,LDL-C,ApoE−/− mice [5]; [7],6.07 ± 0.19
same,TC,ApoE−/− mice [5]; [7],11.84 ± 0.85
same,TG,ApoE−/− mice [5]; [7],1.99 ± 0.14
same,HDL-C,ApoE−/− mice [5]; [8],1.38 ± 0.15
same,LDL-C,ApoE−/− mice [5]; [8],22.09 ± 1.86
same,TC,ApoE−/− mice [5]; [8],28.69 ± 2.34
same,TG,ApoE−/− mice [5]; [8],1.26 ± 0.07
same,HDL-C,ApoE−/− mice [5]; [9],1.44 ± 0.07
same,LDL-C,ApoE−/− mice [5]; [9],23.38 ± 1.46
same,TC,ApoE−/− mice [5]; [9],30.95 ± 1.95
same,TG,ApoE−/− mice [5]; [9],2.14 ± 0.1
same,HDL-C,ApoE−/− mice [5]; [10],1.44 ± 0.07
same,LDL-C,ApoE−/− mice [5]; [10],23.38 ± 1.46
same,TC,ApoE−/− mice [5]; [10],32.35 ± 1.96
same,TG,ApoE−/− mice [5]; [10],2.29 ± 0.2
same,HDL-C,ApoE−/− mice [5]; [11],2.27 ± 0.15
same,LDL-C,ApoE−/− mice [5]; [11],21.1 ± 1.23
same,TC,ApoE−/− mice [5]; [11],27.78 ± 1.36
same,TG,ApoE−/− mice [5]; [11],2.71 ± 0.35
same,HDL-C,ApoE−/− mice [5]; [12],2.1 ± 0.19
same,LDL-C,ApoE−/− mice [5]; [12],15.94 ± 1.32
same,TC,ApoE−/− mice [5]; [12],20.92 ± 1.78
same,TG,ApoE−/− mice [5]; [12],1.27 ± 0.06
same,Effect on percentage of aortic plaque (in words),ApoE−/− mice [6],statistically significant compared with the model group; also recorded: reducing the area
same,% Patch area (aortic plaque),ApoE−/− mice [6],8.43 ± 0.95 %
